According to patent US20260124122A1, “QUATERNARY AMMONIUM SILANE AQUEOUS HYDROGEL FORMULATIONS” (priority 2023, published 2026):

Tests used:
Format in all cases: physicochemical
[1] = Hydrolysis of quaternary ammonium silane, Direct Infusion Mass Spectrometry, ESI+ mode
Method: In this example, hydrolysis of Compound VII was evaluated in the mass-spectrometry study (Direct Infusion Mass Spectrometry, ESI+ mode).
In a first experiment, Compound VII was dissolved in propylene glycol and diluted with acetonitrile to a final concentration of 10 μg/mL in the sample. […] Two minor peaks with m/z of 592 (Compound VII) and m/z of 534 (mono-hydrolyzed species of Compound VII) are present at low abundance. […] Exposure time during the HPLC-mass spec analysis is less than 45 seconds, further confirming the rapid hydrolysis of the quaternary ammonium silane upon exposure to water.
In a second experiment, Compound VII was diluted in water to a final concentration of 10 μg/mL in the sample. The mass spectrum of the sample was recorded at a 30-minute time point and is shown FIG. 3. Compound VII was completely hydrolyzed within the 30-minute time frame according to the following reaction scheme:
0.50% of Compound VII was formulated with 2% propylene glycol, 1% HPMC, 0.1% poloxamer 407, 2% PEG, and 94.40% water.

[2] = Dissolution in water and stability of the aqueous solution of the isolated product; settings: for dissolution of the product in water: isolated product
[3] = Precipitation on addition to hydrogels containing ionic or non-ionic, carboxylic acid group containing ingredients; settings: zinc gluconate, sorbitol, glycerin
Method: (§1) 160 mls of distilled water was added to a 250 mL screw-top media bottle. 4 g of Xanthan gum was added slowly under vigorous stirring. The mixture was stirred overnight and the Xanthan gum was fully dissolved, with the mixture homogenous and clear. Zinc gluconate (0.2 g), sorbitol (10 g), glycerin (4 g), and Poloxamer 407 (0.4 g) were added to the mixture and stirred until homogenous and clear. […] At this point the process was stopped.
as §1, with “bottle. 0.2” for “bottle. 4”, “of carbomer copolymer A” for “of Xanthan gum”, “the carbomer copolymer A” for “the Xanthan gum”
as §1, with “bottle. 0.2” for “bottle. 4”, “of carbomer copolymer B” for “of Xanthan gum”, “the carbomer copolymer B” for “the Xanthan gum”
as §1, with “bottle. 0.2” for “bottle. 4”, “of carrageenan” for “of Xanthan gum”, “the carrageenan” for “the Xanthan gum”
as §1, with “bottle. 0.2” for “bottle. 4”, “of carboxymethylcellulose Sodium” for “of Xanthan gum”, “the Carboxymethylcellulose Sodium” for “the Xanthan gum”
as §1, with “bottle. 0.2” for “bottle. 4”, “of Sodium Alginate” for “of Xanthan gum”, “the Sodium Alginate” for “the Xanthan gum”
as §1, with “of HPMC having a viscosity 2600-5600 in H2O (20° C.)” for “of Xanthan gum”, “the HPMC” for “the Xanthan gum”, “and sodium hyaluronate” for “and Poloxamer 407”

CCCCCCCCCCCCCCCCCC[N+](C)(C)CCC[Si](OCC(C)O)(OCC(C)O)OCC(C)O.CS(=O)(=O)[O-] (stereo not shown) [Compound VII, N,N-dimethyl-N-(3-(tris(2-hydroxypropoxy)silyl)propyl)octadecan-1-aminium methane sulfonate]
extent of hydrolysis ([1]; 0.50% formulated with 2% propylene glycol, 1% HPMC, 0.1% poloxamer 407, 2% PEG, 94.40% water): complete hydrolysis | time frame of complete hydrolysis ([1]; diluted in water, 10 μg/mL): ≤ 30 min | extent of hydrolysis ([1]; diluted in water, 30-minute time point): complete hydrolysis | extent of hydrolysis ([1]; in propylene glycol diluted with acetonitrile, 10 μg/mL, 0.1% aqueous formic acid mobile phase, exposure less than 45 seconds): Partial hydrolysis

CCCCCCCCCCCCCCCCCC[N+](C)(C)CCC[Si](OCC(CO)(CO)NCCS(=O)(=O)[O-])(OCC(CO)(CO)NCCS(=O)(=O)O)OCC(CO)(CO)NCCS(=O)(=O)O [Compound XIX, 2-[[1-[[3-[Dimethyl(octadecyl)ammonio]propyl-[3-hydroxy-2-(hydroxymethyl)-2-(2-sulfoethylamino)propoxy]-[3-hydroxy-2-(hydroxymethyl)-2-(2-sulfoethylamino)propoxy]silyl]oxymethyl]-2-hydroxy-1-(hydroxymethyl)ethyl]amino]-ethanesulfonate]
time a solution in water remains clear ([2]; 1% solution in water): > 5 months | dissolution of the fine powder in water ([2]; water, gentle heating): dissolves quickly in water with gentle heating | precipitation on addition to the mixture ([3]; HPMC with sodium hyaluronate): immediate precipitation | precipitation on addition to the mixture ([3]; Sodium Alginate as gelling agent, Poloxamer 407): immediate precipitation | precipitation on addition to the mixture ([3]; Xanthan gum as gelling agent, Poloxamer 407): immediate precipitation | precipitation on addition to the mixture ([3]; carbomer copolymer A as gelling agent, Poloxamer 407): immediate precipitation | precipitation on addition to the mixture ([3]; carbomer copolymer B as gelling agent, Poloxamer 407): immediate precipitation | precipitation on addition to the mixture ([3]; carboxymethylcellulose Sodium as gelling agent, Poloxamer 407): immediate precipitation | precipitation on addition to the mixture ([3]; carrageenan as gelling agent, Poloxamer 407): immediate precipitation

CCCCCCCCCCCCCCCCCC[N+](C)(C)CCC[Si](OCC(C)O)(OCC(C)O)OCC(C)O (stereo not shown) [Example 1, Dimethyl-octadecyl-[3-[tris(2-hydroxypropoxy)silyl]propyl]ammonium chloride]
dissolution of the product in water ([2]; water): dissolved readily in water

CCCCCCCCCCCCCCCCCC[N+](C)(C)CCC[Si](OCC(C)(CO)C(=O)O)(OCC(C)(CO)C(=O)O)OCC(C)(CO)C(=O)O (stereo not shown) [Example 4, Dimethyl-octadecyl-[3-tris(2-carboxy-3-hydroxy-2-methyl-propoxy)silylpropyl]ammonium chloride]
dissolution of the product in water ([2]; water): dissolved readily in water

CCCCCCCCCCCCCCCCCC[N+](C)(C)CCC[Si](OCCCO)(OCCCO)OCCCO [Example 5, Dimethyl-octadecyl-[3-[tris(3-hydroxypropoxy)silyl]propyl]ammonium chloride]
dissolution of the product in water ([2]; water): dissolved readily in water
